The values below come from US8080553B2, “Methods and reagents for the treatment of immunoinflammatory disorders” (Zalicus Inc., priority 2003, dated 2011).

Experiment [1] has as its system TNFα secretion in white blood cells from human buffy coat.
Method: (§1) Drugs were added to the indicated concentration. […] The plate was then washed again with 0.1% Tween 20/PBS. An HRP-luminescent substrate was added to each well, and the light intensity of each well was measured using a plate luminometer.
For experiment [2] the test system is unchanged. The experiment is described as follows: TNFα secretion assay, cells stimulated with phorbol 12-myristate 13-acetate and ionomycin (Tables 7-26). The settings on record: for percent inhibition of TNFα secretion: dipyridamole 0 μM; for inhibition at 0.3 µM: read-out: percent inhibition of TNFα secretion, dipyridamole 0.3 μM; for inhibition at 19 µM: read-out: percent inhibition of TNFα secretion, dipyridamole 19 μM; for inhibition at 39 µM: read-out: percent inhibition of TNFα secretion, dipyridamole 39 μM.
Method: as §1

Setting [3] is: Homo sapiens, Nortriptyl (μM): 0, 0.52, 1, 2.1, 4.2, 8.3, 17, 33, 67.
[4] abbreviates: Homo sapiens, Ro-20-1724 (μM) by grid row: r5 0, r6 0.28, r7 0.56, r8 1.1, r9 2.2, r10 4.5, r11 9, r12 18, r13 36.
[5] abbreviates: Homo sapiens, amoxapine (μM) by grid row: r5 0, r6 0.25, r7 0.5, r8 1, r9 2, r10 4, r11 8, r12 16, r13 32.
[6] abbreviates: Homo sapiens, fluoxetine (μM) by grid row: r5 0, r6 0.45, r7 0.9, r8 1.8, r9 3.6, r10 7.2, r11 14, r12 29, r13 58.
[7] abbreviates: Homo sapiens, paroxetine (μM): 0, 0.21, 0.42, 0.83, 1.7, 3.3, 6.7, 13, 27.

Values joined by “and” are separate entries in the source; they are usually repeats but may differ in a detail not shown here. Equal entries are not always repeated. Structures can show the parent of a compound that is named as a salt. Where two headings read alike, the source gives them in different places.

What is called inhibition is the drop in the measured response relative to a control, in per cent. With `C[C@H]1C[C@H]2[C@@H]3CCC4=CC(=O)C=C[C@]4(C)[C@@]3(F)[C@@H](O)C[C@]2(C)[C@@]1(O)C(=O)CO` [Betamethasone], the inhibition in experiment [1] was 34.9% and 35.2%.

Consider `CCCC1O[C@@H]2C[C@H]3[C@@H]4CCC5=CC(=O)C=C[C@]5(C)[C@H]4[C@@H](O)C[C@]3(C)[C@]2(C(=O)CO)O1` (stereo partly shown) [Budesonide], for which, in experiment [2] (Homo sapiens, read-out: percent inhibition of TNFα secretion, budesonide 35 nM, dipyridamole (μM as printed) by grid row: r5 0, r6 30, r7 121, r8 486, r9 1943, r10 7773), the inhibition at […] came to 36.3%.

With `CN1CCC(=C2c3ccccc3C=Cc3ccccc32)CC1` [Cyproheptadine HCl], the “percent inhibition of TNFα secretion” value in experiment [2] (cyproheptadine HCl (μM) by grid row: r5 0, r6 0.24, r7 0.48, r8 0.96, r9 1.9, r10 3.9, r11 7.7, r12 15, r13 31) turned out to be 29%.

`OCCN(CCO)c1nc(N2CCCCC2)c2nc(N(CCO)CCO)nc(N3CCCCC3)c2n1` [Dipyridamole, 2,6-bis(diethanolamino)-4,8-dipiperidinopyrimido(5,4-d)pyrimidine]: the inhibition at 0.3 µM in experiment [2] (setting [3]) is 14%; in experiment [2] (setting [4]), -1.96%; in experiment [2] (setting [5]), 19%; in experiment [2] (setting [6]), 18%; in experiment [2] (setting [7]), 21%. Also, the inhibition at 19 µM in experiment [2] (setting [3]) was 64%; in experiment [2] (setting [4]), 64%; in experiment [2] (setting [6]) it was 62%; in experiment [2] (setting [7]), 60%. The inhibition at 39 µM in experiment [2] (setting [3]) stood at 80%; in experiment [2] (setting [5]), 78%; in experiment [2] (setting [6]), 76%; in experiment [2] (setting [7]), 76%.

Take `CC(C)C(=O)c1c(C(C)C)nn2ccccc12` [Ibudilast]: the inhibition at 0.5 µM in experiment [2] (Homo sapiens, read-out: percent inhibition of TNFα secretion, ibudilast 0.5 μM, dipyridamole (μM): 0, 0.15, 0.3, 0.61, 1.2, 2.4, 4.9, 9.7, 19) turned out to be 22.9%. Also, the inhibition at 1 µM in experiment [2] (Homo sapiens, read-out: percent inhibition of TNFα secretion, ibudilast 1 μM, dipyridamole (μM): 0, 0.15, 0.3, 0.61, 1.2, 2.4, 4.9, 9.7, 19) amounted to 37.4%. Besides, the inhibition at 2 µM in experiment [2] (Homo sapiens, read-out: percent inhibition of TNFα secretion, ibudilast 2 μM, dipyridamole (μM): 0, 0.15, 0.3, 0.61, 1.2, 2.4, 4.9, 9.7, 19) was 42.9%. In experiment [2] (Homo sapiens, read-out: percent inhibition of TNFα secretion, ibudilast 4 μM, dipyridamole (μM): 0, 0.15, 0.3, 0.61, 1.2, 2.4, 4.9, 9.7, 19), the inhibition at 4 µM is 45.9%. Moreover, the inhibition at 8 µM in experiment [2] (Homo sapiens, read-out: percent inhibition of TNFα secretion, ibudilast 8 μM, dipyridamole (μM): 0, 0.15, 0.3, 0.61, 1.2, 2.4, 4.9, 9.7, 19) came to 53.8%.

With `CCOC(=O)N1CCC(=C2c3ccc(Cl)cc3CCc3cccnc32)CC1` [Loratadine], the “percent inhibition of TNFα secretion” value in experiment [2] (loratadine (μM) by grid row: r5 0, r6 0.2, r7 0.41, r8 0.82, r9 1.6, r10 3.3, r11 6.5, r12 13, r13 26) is listed as 31%.

Turning to `C[C@]12C=CC(=O)C=C1CC[C@@H]1[C@@H]2[C@@H](O)C[C@@]2(C)[C@H]1CC[C@]2(O)C(=O)CO` [Prednisolone], the inhibition at 0.5 µM in experiment [2] (Homo sapiens, read-out: percent inhibition of TNFα secretion, prednisolone 0.5 μM, dipyridamole (μM) by grid row: r5 0, r6 0.3, r7 0.61, r8 1.2, r9 2.4, r10 4.9, r11 9.7, r12 19, r13 39) stood at 29.9%.

Regarding `COc1ccc(C2CNC(=O)C2)cc1OC1CCCC1` (stereo not shown) [Rolipram, 4-[3-(cyclopentyloxy)-4-methoxyphenyl]-2-pyrrolidone], the inhibition at 0.5 µM in experiment [2] (Homo sapiens, read-out: percent inhibition of TNFα secretion, rolipram 0.5 μM, dipyridamole (μM): 0, 0.15, 0.3, 0.61, 1.2, 2.4, 4.9, 9.7, 19) is 36.8%. The inhibition at 1 µM in experiment [2] (Homo sapiens, read-out: percent inhibition of TNFα secretion, rolipram 1 μM, dipyridamole (μM): 0, 0.15, 0.3, 0.61, 1.2, 2.4, 4.9, 9.7, 19) is 38.9%.
